Measurements taken from US8895504B2, “Amylin derivatives” (priority 2008, dated 2014).
*1 amine or outer side, *2 acyl side, *3 side chain or, on linkers, in order; H or OH if unused. Where a SMILES comes first, the peptide text is derived from it. Bridges are numbered along the chain shown (N, C = ends). Side-chain parts run from the residue outwards. The star is where a group is joined. C20 diacid = O=C(O)CCCCCCCCCCCCCCCCCCC(=O)*; C18 diacid = O=C(O)CCCCCCCCCCCCCCCCC(=O)*; γGlu = O=C(O)[C@H](CCC(=O)[*:2])N[*:1]; AEEA = NCCOCCOCC(=O)O

Legend:
[1] = test system: food intake; assay: Pharmacological Assay (I) - efficacy testing on appetite, ad libitum fed rat model; assay type: in vivo, Sprague Dawley (SD) rats; conditions: 30 nmol/kg vs vehicle, ad libitum fed rats, n=5-7, 0-48 hours
Source text: Assays Pharmacological Assay (I)—Experimental Protocol for Efficacy Testing on Appetite with an Amylin Derivative, Using an Ad Libitum Fed Rat Model. Sprague Dawley (SD) rats from Taconic Europe, Denmark are used for the experiments. The rats have a body weight 200-250 g at the start of experiment. The rats arrive at least 10-14 days before start of experiment to allow acclimatization to experimental settings. During this period the animals are handled at least 2 times. After arrival rats are housed individually for one week in a reversed light/dark phase (meaning that lights are off during daytime and on during nighttime) for two weeks. Since rats are normally active and eat their major part of their daily food intake during the dark period, rats are dosed in the morning right before lights are turned off. This set-up results in the lowest data variation and highest test sensitivity. The experiment is conducted in the rats' home cages and rats have free access to food and water throughout the acclimatization period and the experiment period. Each dose of derivative is tested in a group of 5-8 rats. A vehicle group of 6-8 rats is included in each set of testing. Rats are dosed once according to body weight with a 0.01-3 mg/kg solution administered intraperitoneally (ip), orally (po) or subcutaneously (sc). The time of dosing is recorded for each group. After dosing, the rats are returned to their home cages, where they then have access to food and water. The food consumption is recorded individually continuously by on-line registration or manually every hour for 7 hours, and then after 24 h and sometimes 48 h. At the end of the experimental session, the animals are euthanized. The individual data are recorded in Microsoft excel sheets. Outliers are excluded after applying the Grubbs statistical evaluation test for outliers, and the result is presented graphically using the GraphPad Prism program.

[2] = biological target: T1, Amylin 3(a) receptor (human calcitonin receptor (CTa) and RAMP-3) (Homo sapiens, UniProt O60896+P30988); assay: Luciferase assay (III), BHK Amylin 3(a)//CRE-luc cells; assay type: cell-based; conditions: BHK cells with Amylin 3(a) receptor and CRE luciferase reporter, 4 hours incubation; read-out: Potency Luciferase
T1 construct: expressed in transfected cells; host or cells: BHK570 cells, stably transfected with a CRE-luciferase reporter
How it was run: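 BHK570 cells stably expressing CTa, RAMP-3 and a CRE-luciferase reporter, seeded at about 20,000 cells/well and grown overnight. Cells were exposed to standard or sample for 4 h at 37° C in phenol red-free DMEM with 10% FBS and 10 mM Hepes, pH 7,4. Luminescence was read after 30 min LucLite at room temperature.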

[3] = Assay (V) PK - determination of T½ in mini-pig; assay type: in vivo; conditions: minipig, sc; terminal plasma half-life, subcutaneous, approx 2 nmol/kg, male Göttingen mini-pigs
Procedure: Assay (V) PK—Determination OF T½ in Mini-Pig
T½ is the terminal half-life=ln 2/λz of a compound in plasma. λz is the first order rate constant associated with the terminal (log-linear) portion of the plasma concentration-time curve and is estimated by linear regression of time vs. log concentration.
T½ values of the amylin analogues of the invention is determined by pharmacokinetic studies in male Göttingen mini-pigs from Ellegaard Göttingen Minipigs ApS and the principles of laboratory animal care are followed.
An acclimatization period of approximately 6-10 days was allowed before the animals entered the study. At start of the acclimatization period the mini-pigs were about 5 to 12 months old and in the weight range of 7-35 kg. The mini-pigs had two central venous catheters inserted which were used for blood sampling.
The studies were conducted in an animal room which was illuminated to give a cycle of approx 12 hours light and 12 hours darkness. The animals were housed individually.
The animals had free access to domestic quality drinking water during the study, but were typically fasted from overnight before dosing until approx 6-12 hours after dosing. The animals were weighed on arrival and on the days of dosing.
In the present studies the test substances were administered subcutaneously in approx 2 nmol/kg dose. The animals received a single subcutaneous injection. The subcutaneous injection was given on the right side of the neck, approximately 5-7 cm from the ear and 7-9 cm from the middle of the neck. The injections were given with a stopper on the needle, allowing approx 0.5 cm of the needle to be introduced. Each test substance was given to typically three but in some cases two or four animals.
A full plasma concentration-time profile, employing 12-16 sampling points, was obtained from each animal. In example blood samples were collected according to the following schedule:
After subcutaneous administration:
Predose (0), 0.5, 1, 2, 4, 6, 8, 12, 24, 48, 72, 96, 120, 168 and 240 hours after injection. In some cases also additional blood samples up to 288 hours post injection were taken.
At each sampling time, 0.5 to 2 ml of blood was drawn from each animal. The blood samples were taken via the central venous catheter.
The blood samples were collected into EDTA test tubes (i.e. Sarstedt Micro tube 1.3 mL K3E). Blood samples were kept on ice for max 20 min. before centrifugation. Plasma was separated using centrifugation (i.e. at 4° C., 10 min., 1500 G) and was immediately transferred to Micronic tubes. Approximately 200 μl plasma was transferred to each Micronic tube. The plasma was stored at −20° C. until assayed. The plasma samples were assayed for the content of amylin using an ELISA assay.
The plasma concentration-time profiles were analysed by a non-compartmental pharmacokinetic analysis (NCA) using WinNonlin Professional 5.0 (Pharsight Inc., Mountain View, Calif., USA). NCA was performed using the individual plasma concentration-time profiles from each animal. T½ is the terminal half-life=ln 2/λz and was determined from λz, the first order rate constant associated with the terminal (log-linear) portion of the curve, estimated by linear regression of time vs. log concentration.
ELISA Plasma Assay for Amylin Quantification
The human amylin ELISA is a monoclonal antibody-based sandwich immunoassay for determining amylin levels in human plasma. The capture antibody recognizes human amylin, amylin acid (deamidated amylin), a 1-20 fragment of amylin, but not reduced amylin.
The detection antibody binds to reduced or unreduced human amylin but not amylin acid and is complexed with streptavidin-alkaline phosphatase. The substrate, 4-methylumbelliferyl phosphate, is applied to the completed sandwich and the fluorescent signal, monitored at 355 nm/460 nm, is proportional to the amount of amylin present in the sample.

T1 sequence (O60896 24-148): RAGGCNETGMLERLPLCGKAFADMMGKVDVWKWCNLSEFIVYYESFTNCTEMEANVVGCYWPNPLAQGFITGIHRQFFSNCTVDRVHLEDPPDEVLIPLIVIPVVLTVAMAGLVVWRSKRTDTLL
T1 sequence (P30988 25-474): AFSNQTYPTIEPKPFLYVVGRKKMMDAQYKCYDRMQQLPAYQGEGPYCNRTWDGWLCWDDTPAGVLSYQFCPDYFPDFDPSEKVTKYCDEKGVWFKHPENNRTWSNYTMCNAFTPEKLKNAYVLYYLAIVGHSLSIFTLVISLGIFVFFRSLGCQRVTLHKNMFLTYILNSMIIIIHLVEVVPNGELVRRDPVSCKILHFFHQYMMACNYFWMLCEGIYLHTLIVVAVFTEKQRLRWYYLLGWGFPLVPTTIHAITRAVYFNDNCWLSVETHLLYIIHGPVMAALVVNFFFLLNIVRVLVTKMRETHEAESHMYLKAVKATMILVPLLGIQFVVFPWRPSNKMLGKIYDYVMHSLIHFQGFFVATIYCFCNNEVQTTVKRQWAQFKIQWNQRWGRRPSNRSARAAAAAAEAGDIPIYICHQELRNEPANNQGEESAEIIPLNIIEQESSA

EC50 [2]	half-life [3]	SMILES	food intake over a period of 48 hours [1]
0.03 nM		CC[C@H](C)[C@H](NC(=O)[C@@H]1CCCN1C(=O)CNC(=O)[C@H](Cc1ccccc1)NC(=O)[C@H](CC(N)=O)NC(=O)[C@H](CC(N)=O)NC(=O)[C@H](CO)NC(=O)[C@H](CO)NC(=O)[C@H](Cc1c[nH]cn1)NC(=O)[C@H](Cc1c[nH]cn1)NC(=O)[C@H](CC(C)C)NC(=O)[C@H](Cc1ccccc1)NC(=O)[C@H](CC(N)=O)NC(=O)[C@H](C)NC(=O)[C@H](CC(C)C)NC(=O)[C@H](CCCNC(=N)N)NC(=O)[C@H](CCC(N)=O)NC(=O)[C@@H](NC(=O)[C@H](C)NC(=O)[C@@H]1CSSC[C@H](NC(=O)[C@H](CCCNC(=N)N)NC(=O)COCCOCCNC(=O)COCCOCCNC(=O)CC[C@H](NC(=O)CCCCCCCCCCCCCCCCC(=O)O)C(=O)O)C(=O)N[C@@H](CC(N)=O)C(=O)N[C@@H]([C@@H](C)O)C(=O)N[C@@H](C)C(=O)N[C@@H]([C@@H](C)O)C(=O)N1)[C@@H](C)O)C(=O)N[C@@H](CC(C)C)C(=O)N1CCC[C@H]1C(=O)N1CCC[C@H]1C(=O)N[C@H](C(=O)N[C@@H](CC(N)=O)C(=O)N[C@H](C(=O)NCC(=O)N[C@@H](CO)C(=O)N[C@@H](CC(N)=O)C(=O)N[C@H](C(=O)N[C@@H](Cc1ccc(O)cc1)C(N)=O)[C@@H](C)O)C(C)C)[C@@H](C)O [Example 45, N-alpha-[2-(2-{2-[2-(2-{2-[(S)-4-Carboxy-4-(17-carboxyheptadecanoylamino)butyrylamino]ethoxy}ethoxy)acetylamino]ethoxy}ethoxy)acetyl][Arg1,His17]-pramlintide] ({C18 diacid-γGlu-AEEA-AEEA}-RCNTATCATQRLANFLHHSSNNFGPILPPTNVGSNTY-NH2; disulfide 2-7)	effectively reducing food intake
0.4 nM		CC[C@H](C)[C@H](NC(=O)[C@@H]1CCCN1C(=O)CNC(=O)[C@H](Cc1ccccc1)NC(=O)[C@H](CC(N)=O)NC(=O)[C@H](CC(=O)O)NC(=O)[C@H](CO)NC(=O)[C@H](CO)NC(=O)[C@H](Cc1c[nH]cn1)NC(=O)[C@H](Cc1c[nH]cn1)NC(=O)[C@H](CC(C)C)NC(=O)[C@H](Cc1ccccc1)NC(=O)[C@H](CC(N)=O)NC(=O)[C@H](C)NC(=O)[C@H](CC(C)C)NC(=O)[C@H](CCCNC(=N)N)NC(=O)[C@H](CCC(N)=O)NC(=O)[C@@H](NC(=O)[C@H](C)NC(=O)[C@@H]1CSSC[C@H](NC(=O)[C@@H](N)CCCCN)C(=O)N[C@@H](CCCCNC(=O)COCCOCCNC(=O)[C@H](CCC(=O)O)NC(=O)[C@H](CCC(=O)O)NC(=O)CCCCCCCCCCCCCCCCCCC(=O)O)C(=O)N[C@@H]([C@@H](C)O)C(=O)N[C@@H](C)C(=O)N[C@@H]([C@@H](C)O)C(=O)N1)[C@@H](C)O)C(=O)N[C@@H](CC(C)C)C(=O)N1CCC[C@H]1C(=O)N1CCC[C@H]1C(=O)N[C@H](C(=O)N[C@@H](CC(N)=O)C(=O)N[C@H](C(=O)NCC(=O)N[C@@H](CO)C(=O)N[C@@H](CC(N)=O)C(=O)N[C@H](C(=O)N[C@@H](Cc1ccc(O)cc1)C(N)=O)[C@@H](C)O)C(C)C)[C@@H](C)O [Example 3, N-epsilon3-{2-[2-(2-{(S)-4-Carboxy-2-[(S)-4-carboxy-2-(19-carboxynonadecanoylamino)butyrylamino]butyrylamino}ethoxy)ethoxy]acetyl}-[Lys3,His17,Asp21]-pramlintide] (H-KCK([AEEA-Glu-Glu-C20 diacid])TATCATQRLANFLHHSSDNFGPILPPTNVGSNTY-NH2; disulfide 2-7)	effectively reducing food intake
0.1 nM	53 h	CC[C@H](C)[C@H](NC(=O)[C@@H]1CCCN1C(=O)CNC(=O)[C@H](Cc1ccccc1)NC(=O)[C@H](CC(N)=O)NC(=O)[C@H](CC(N)=O)NC(=O)[C@H](CO)NC(=O)[C@H](CO)NC(=O)[C@H](Cc1c[nH]cn1)NC(=O)[C@H](Cc1c[nH]cn1)NC(=O)[C@H](CC(C)C)NC(=O)[C@H](Cc1ccccc1)NC(=O)[C@H](CC(N)=O)NC(=O)[C@H](C)NC(=O)[C@H](CC(C)C)NC(=O)[C@H](CCCNC(=N)N)NC(=O)[C@H](CCC(N)=O)NC(=O)[C@@H](NC(=O)[C@H](C)NC(=O)[C@@H]1CSSC[C@H](NC(=O)[C@H](Cc2c[nH]cn2)NC(=O)[C@H](Cc2c[nH]cn2)NC(=O)[C@H](Cc2c[nH]cn2)NC(=O)[C@H](CCC(=O)O)NC(=O)CC[C@H](NC(=O)CCCCCCCCCCCCCCCCCCC(=O)O)C(=O)O)C(=O)N[C@@H](CC(N)=O)C(=O)N[C@@H]([C@@H](C)O)C(=O)N[C@@H](C)C(=O)N[C@@H]([C@@H](C)O)C(=O)N1)[C@@H](C)O)C(=O)N[C@@H](CC(C)C)C(=O)N1CCC[C@H]1C(=O)N1CCC[C@H]1C(=O)N[C@H](C(=O)N[C@@H](CC(N)=O)C(=O)N[C@H](C(=O)NCC(=O)N[C@@H](CO)C(=O)N[C@@H](CC(N)=O)C(=O)N[C@H](C(=O)N[C@@H](Cc1ccc(O)cc1)C(N)=O)[C@@H](C)O)C(C)C)[C@@H](C)O [Example 54, N-alpha-[(S)-4-Carboxy-4-(19-carboxynonadecanoylamino)butyryl]-Glu-His-His-[His1,His17]-pramlintide] ({C20 diacid-γGlu}-EHHHCNTATCATQRLANFLHHSSNNFGPILPPTNVGSNTY-NH2; disulfide 5-10)	
